This note sets out measurements from ChEMBL document CHEMBL1944579, “Discovery of a potent and orally bioavailable benzolactam-derived inhibitor of Polo-like kinase 1 (MLN0905)” (J Med Chem, 2012).

Molecules are shown by their SMILES.

In general, half-life refers to how long it takes for the measured level to halve. A word on the bioavailability: it is dose-corrected exposure relative to a reference, in per cent. Low readings indicate poor availability, high ones good availability. The clearance is the volume of plasma or blood freed of the substance per unit of time. A low value points to inefficient removal. Broadly, the Cmax is the maximum level reached in the sampled fluid or tissue. As a reminder, the Tmax is the time from dosing to the highest level.

The nature of data set [1]: Drug uptake in tumor of nude mouse xenografted with human HT-29 cells at 50 mg/kg, po after 48 hrs. In kind it is ADME, organism-based, Neoplasm. More on the design: dose 50 mg/kg, route oral. To be noted: read-out: Drug uptake.
Data set [2] can be described thus: Drug uptake in tumor of nude mouse xenografted with human HT-29 cells at 50 mg/kg, po after 24 hrs. More on the design: dose 50 mg/kg, route oral. To be noted: read-out: Drug uptake. The class given is ADME, organism-based, Neoplasm. For orientation: In xenograft studies the graft and the host belong to different species.
Data set [3] can be described thus: Drug uptake in tumor of nude mouse xenografted with human HT-29 cells at 50 mg/kg, po after 72 hrs. In kind it is ADME, organism-based, Neoplasm. More on the design: dose 50 mg/kg, route oral. To be noted: read-out: Drug uptake.
Data set [4] in a line: Half life in Sprague-Dawley rat at 1 mg/kg, iv. In kind it is ADME, organism-based. More on the design: dose 1 mg/kg, route intravenous. As to conditions: in vivo.
The nature of data set [5]: Toxicity in po dosed nude mouse administered once daily. As to conditions: in vivo. In kind it is organism-based.
Data set [6] can be described thus: Oral bioavailability in Sprague-Dawley rat at 5 mg/kg. To be noted: in vivo. The class given is ADME, organism-based.
Data set [7] can be described thus: Plasma clearance in Sprague-Dawley rat at 1 mg/kg, iv. The class given is ADME, organism-based. Set-up: dose 1 mg/kg, route intravenous.
Data set [8] is described as follows: Drug uptake in tumor of nude mouse xenografted with human HT-29 cells at 12.5 mg/kg, po after 72 hrs. Set-up: dose 12.5 mg/kg, route oral. To be noted: read-out: Drug uptake. The class given is ADME, organism-based, Neoplasm.
The nature of data set [9]: Toxicity in po dosed nude mouse administered qd for 3 days in a week. The class given is organism-based. To be noted: in vivo.
A short description of data set [10]: Drug uptake in tumor of nude mouse xenografted with human HT-29 cells at 6.25 mg/kg, po after 24 hrs. More on the design: dose 6.25 mg/kg, route oral. To be noted: read-out: Drug uptake. The class given is ADME, organism-based, Neoplasm.
Data set [11] is described as follows: Drug uptake in tumor of nude mouse xenografted with human HT-29 cells at 25 mg/kg, po after 24 hrs. The class given is ADME, organism-based, Neoplasm. Set-up: dose 25 mg/kg, route oral. As to conditions: read-out: Drug uptake.
Data set [12] in a line: Drug uptake in tumor of nude mouse xenografted with human HT-29 cells at 6.25 mg/kg, po after 48 hrs. More on the design: dose 6.25 mg/kg, route oral. The class given is ADME, organism-based, Neoplasm. As to conditions: read-out: Drug uptake.
Data set [13] is described as follows: Cmax in Sprague-Dawley rat at 5 mg/kg, po. In kind it is ADME, organism-based. More on the design: dose 5 mg/kg, route oral. As to conditions: in vivo.
Data set [14] can be described thus: Drug uptake in tumor of nude mouse xenografted with human HT-29 cells at 25 mg/kg, po after 72 hrs. In kind it is ADME, organism-based, Neoplasm. Set-up: dose 25 mg/kg, route oral. To be noted: read-out: Drug uptake.
Data set [15] can be described thus: Plasma clearance in nude NCR mouse at 2 mg/kg, iv. Set-up: dose 2 mg/kg, route intravenous. The class given is ADME, organism-based.
The nature of data set [16]: Oral bioavailability in nude NCR mouse at 12.5 mg/kg. In kind it is ADME, organism-based. To be noted: in vivo.
The nature of data set [17]: Drug uptake in tumor of nude mouse xenografted with human HT-29 cells at 12.5 mg/kg, po after 48 hrs. More on the design: dose 12.5 mg/kg, route oral. The class given is ADME, organism-based, Neoplasm. As to conditions: read-out: Drug uptake.
Data set [18] in a line: Half life in nude NCR mouse at 2 mg/kg, iv. In kind it is ADME, organism-based. More on the design: dose 2 mg/kg, route intravenous. To be noted: in vivo.
The nature of data set [19]: Drug uptake in tumor of nude mouse xenografted with human HT-29 cells at 25 mg/kg, po after 48 hrs. More on the design: dose 25 mg/kg, route oral. In kind it is ADME, organism-based, Neoplasm. As to conditions: read-out: Drug uptake.
Data set [20] in a line: Tmax in nude NCR mouse at 12.5 mg/kg, po. Set-up: dose 12.5 mg/kg, route oral. To be noted: in vivo. The class given is ADME, organism-based.
Data set [21] can be described thus: Volume of distribution at steady state in nude NCR mouse at 2 mg/kg, iv. Set-up: dose 2 mg/kg, route intravenous. In kind it is ADME, organism-based. As to conditions: in vivo, read-out: Vdss.
A short description of data set [22]: Cmax in nude NCR mouse at 12.5 mg/kg, po. In kind it is ADME, organism-based. More on the design: dose 12.5 mg/kg, route oral. As to conditions: in vivo.
Data set [23] is described as follows: Tmax in Sprague-Dawley rat at 5 mg/kg, po. The class given is ADME, organism-based. More on the design: dose 5 mg/kg, route oral. To be noted: in vivo.
Data set [24] can be described thus: Toxicity in po dosed nude mouse administered qd for 1 day in a week. As to conditions: in vivo. In kind it is organism-based.
The nature of data set [25]: Drug uptake in tumor of nude mouse xenografted with human HT-29 cells at 12.5 mg/kg, po after 24 hrs. In kind it is ADME, organism-based, Neoplasm. More on the design: dose 12.5 mg/kg, route oral. As to conditions: read-out: Drug uptake.
A short description of data set [26]: Drug uptake in tumor of nude mouse xenografted with human HT-29 cells at 6.25 mg/kg, po after 72 hrs. As to conditions: read-out: Drug uptake. Set-up: dose 6.25 mg/kg, route oral. In kind it is ADME, organism-based, Neoplasm.
The nature of data set [27]: Volume of distribution at steady state in Sprague-Dawley rat at 1 mg/kg, iv. In kind it is ADME, organism-based. Set-up: dose 1 mg/kg, route intravenous. As to conditions: in vivo, read-out: Vdss.

For the molecule `Cc1ncc(CCCN(C)C)cc1Nc1ncc2c(n1)-c1ccc(Cl)cc1NC(=S)C2`, the concentration at 48 h in data set [1] was 332 nM. For the same molecule, the concentration at 24 h in data set [2] came to 1080 nM. The concentration at 72 h in [3] was found to be 60.3 nM.

For the molecule `Cc1ncc(CCCN(C)C)cc1Nc1ncc2c(n1)-c1ccc(C(F)(F)F)cc1NC(=S)C2`, the half-life in [4] is 4.7 h; in data set [18], 3.4 h. The concentration at 48 h in data set [1] turned out to be 476 nM; in data set [12], 121 nM; in data set [17] it was 353 nM; in [19], 369 nM. Besides, in data set [5], the MTD is 12.5 mg/kg. The bioavailability turned out to be 72% in data set [6] and 45% in data set [16]. Also, the clearance is 38.3 mL/min/kg in data set [7] and 41.7 mL/min/kg in data set [15]. For the same molecule, the concentration at 72 h came out at 139 nM in [8], 163 nM in data set [14], 376 nM in [3] and 98 nM in data set [26]. For the same molecule, the concentration at 24 h in data set [2] was 1470 nM; in [10], 239 nM; in data set [11], 920 nM; in data set [25], 339 nM. In addition, the MTD at 72 h in data set [9] was found to be 25 mg/kg. The values for the Cmax in data set [13] and in [22] were 335 nM and 720 nM, respectively. The Tmax in data set [20] and in data set [23] was 4 h in each case. Besides, the results for the Vd in data set [21] and in data set [27] were 6.2 L/kg and 10.2 L/kg, respectively. The MTD at 24 h in data set [24] was 50 mg/kg.
